Laboratory results as given in patent US20250197372A1 (priority 2020, published 2025).

Columns and labels:
Assay type in all cases: biochemical
[1] = molecular target: T1, recombinant alpha-glucosidase II (murine full-length glucosidase II, alpha and beta subunits, Glu 2) (Mus musculus, UniProt Q8BHN3); assay: Alpha-glucosidase II assay (4-methylumbelliferyl-alpha-D-pyranoside substrate, fluorescence); details: Glucosidase 2; read-out: Glu2 IC50
T1 construct: made in house; host or cells: HEK-293T cells transduced with BacMam viruses (75% alpha, 25% beta); protein harvested from culture supernatant

[2] = molecular target: recombinant human GAA (acid alpha-glucosidase) (Homo sapiens, UniProt P10253); assay: Acid alpha-glucosidase (GAA) assay (4-methylumbelliferyl-alpha-D-pyranoside substrate, fluorescence)
Method in brief: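 Recombinant human enzyme preincubated 60 min at 37 °C with compound dilutions, then 4-methylumbelliferyl-alpha-D-pyranoside substrate added for 20 min at 37 °C. Stopped with glycine/NaOH pH 10; methylumbelliferone fluorescence (ex 365, em 440 nm) versus untreated enzyme; IC50 by 4-PL fit.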

[3] = molecular target: T2, recombinant human GBA (beta-glucocerebrosidase) (Homo sapiens, UniProt P04062); assay: Beta-glucocerebrosidase (GBA, glucosylceramidase) assay (4-methylumbelliferyl-beta-D-pyranoside substrate, fluorescence)
T2 sequence (P04062 40-536): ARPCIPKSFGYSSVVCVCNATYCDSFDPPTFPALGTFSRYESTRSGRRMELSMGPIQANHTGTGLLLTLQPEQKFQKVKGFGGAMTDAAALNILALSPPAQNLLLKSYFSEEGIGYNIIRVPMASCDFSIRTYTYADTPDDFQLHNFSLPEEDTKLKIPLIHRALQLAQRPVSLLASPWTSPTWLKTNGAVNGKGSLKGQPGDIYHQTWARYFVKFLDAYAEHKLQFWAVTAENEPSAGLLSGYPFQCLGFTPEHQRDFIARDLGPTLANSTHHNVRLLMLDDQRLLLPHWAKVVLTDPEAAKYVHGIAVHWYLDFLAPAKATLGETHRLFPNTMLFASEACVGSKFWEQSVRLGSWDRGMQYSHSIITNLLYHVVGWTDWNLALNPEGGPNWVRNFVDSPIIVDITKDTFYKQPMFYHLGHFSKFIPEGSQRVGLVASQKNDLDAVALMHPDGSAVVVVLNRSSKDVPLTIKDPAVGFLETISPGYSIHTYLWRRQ
Method in brief: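 Recombinant human GBA preincubated with compound dilutions 60 min at 37 °C, then 4-methylumbelliferyl-beta-D-pyranoside added for 60 min at 37 °C. Stopped at pH 10 (glycine/NaOH); fluorescence ex 365/em 440 nm. IC50 from 4-PL fit of inhibition relative to untreated enzyme.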

[4] = molecular target: rat sucrase (partially purified alpha-glucosidase from intestinal rat powder) (Rattus norvegicus, UniProt P23739); assay: Intestinal alpha-glucosidase assay, sucrose substrate (Glucose GO Kit)
Method in brief: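 Rat intestinal enzyme prep + test cpd dilutions, 60 min 37 °C; add maltose (maltase) or sucrose (sucrase), 30 min 37 °C; stop 90 °C 5 min. Glucose readout (glucose oxidase kit). IC50 from 4-PL fit of % inhibition vs conc.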

T1 sequence (O08795 15-521): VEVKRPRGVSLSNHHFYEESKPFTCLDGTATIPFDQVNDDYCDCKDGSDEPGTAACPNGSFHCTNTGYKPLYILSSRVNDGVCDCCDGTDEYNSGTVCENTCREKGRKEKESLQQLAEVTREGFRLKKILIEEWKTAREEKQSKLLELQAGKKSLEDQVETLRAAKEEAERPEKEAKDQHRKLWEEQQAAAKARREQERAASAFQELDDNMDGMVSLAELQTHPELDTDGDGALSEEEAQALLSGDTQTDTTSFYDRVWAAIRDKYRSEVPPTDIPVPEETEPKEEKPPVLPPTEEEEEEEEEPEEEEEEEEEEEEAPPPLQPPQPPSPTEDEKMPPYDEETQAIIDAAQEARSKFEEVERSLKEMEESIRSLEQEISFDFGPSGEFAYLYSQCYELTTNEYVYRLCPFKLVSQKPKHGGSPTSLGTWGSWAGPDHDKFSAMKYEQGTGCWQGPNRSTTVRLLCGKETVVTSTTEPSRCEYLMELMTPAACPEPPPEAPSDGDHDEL
T1 sequence (Q8BHN3 33-944): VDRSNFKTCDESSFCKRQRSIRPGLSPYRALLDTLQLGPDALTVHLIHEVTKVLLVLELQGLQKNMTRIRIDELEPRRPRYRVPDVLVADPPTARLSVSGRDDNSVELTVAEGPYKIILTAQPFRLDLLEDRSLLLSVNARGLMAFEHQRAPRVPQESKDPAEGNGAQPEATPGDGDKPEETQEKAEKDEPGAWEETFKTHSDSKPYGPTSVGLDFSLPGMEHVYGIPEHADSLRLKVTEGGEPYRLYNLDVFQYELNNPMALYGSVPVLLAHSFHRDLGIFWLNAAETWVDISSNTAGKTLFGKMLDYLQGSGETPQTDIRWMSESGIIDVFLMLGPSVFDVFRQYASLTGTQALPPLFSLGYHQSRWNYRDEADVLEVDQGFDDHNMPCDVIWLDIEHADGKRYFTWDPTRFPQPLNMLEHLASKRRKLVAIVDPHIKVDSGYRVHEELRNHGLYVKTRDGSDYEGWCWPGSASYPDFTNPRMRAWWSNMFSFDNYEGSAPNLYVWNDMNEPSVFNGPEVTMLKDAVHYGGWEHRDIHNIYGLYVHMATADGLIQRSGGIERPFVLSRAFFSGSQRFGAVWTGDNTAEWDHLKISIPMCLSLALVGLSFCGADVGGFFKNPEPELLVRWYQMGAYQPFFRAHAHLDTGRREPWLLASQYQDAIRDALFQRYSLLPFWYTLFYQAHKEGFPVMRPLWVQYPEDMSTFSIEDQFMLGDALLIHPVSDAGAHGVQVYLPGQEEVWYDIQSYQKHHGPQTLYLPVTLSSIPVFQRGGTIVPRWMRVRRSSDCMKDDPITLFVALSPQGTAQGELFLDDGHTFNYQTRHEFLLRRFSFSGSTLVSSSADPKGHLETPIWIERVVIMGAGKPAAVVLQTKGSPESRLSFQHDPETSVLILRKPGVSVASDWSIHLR
rat sucrase (partially purified alpha-glucosidase from intestinal rat powder), sequence (P23739 whole entry): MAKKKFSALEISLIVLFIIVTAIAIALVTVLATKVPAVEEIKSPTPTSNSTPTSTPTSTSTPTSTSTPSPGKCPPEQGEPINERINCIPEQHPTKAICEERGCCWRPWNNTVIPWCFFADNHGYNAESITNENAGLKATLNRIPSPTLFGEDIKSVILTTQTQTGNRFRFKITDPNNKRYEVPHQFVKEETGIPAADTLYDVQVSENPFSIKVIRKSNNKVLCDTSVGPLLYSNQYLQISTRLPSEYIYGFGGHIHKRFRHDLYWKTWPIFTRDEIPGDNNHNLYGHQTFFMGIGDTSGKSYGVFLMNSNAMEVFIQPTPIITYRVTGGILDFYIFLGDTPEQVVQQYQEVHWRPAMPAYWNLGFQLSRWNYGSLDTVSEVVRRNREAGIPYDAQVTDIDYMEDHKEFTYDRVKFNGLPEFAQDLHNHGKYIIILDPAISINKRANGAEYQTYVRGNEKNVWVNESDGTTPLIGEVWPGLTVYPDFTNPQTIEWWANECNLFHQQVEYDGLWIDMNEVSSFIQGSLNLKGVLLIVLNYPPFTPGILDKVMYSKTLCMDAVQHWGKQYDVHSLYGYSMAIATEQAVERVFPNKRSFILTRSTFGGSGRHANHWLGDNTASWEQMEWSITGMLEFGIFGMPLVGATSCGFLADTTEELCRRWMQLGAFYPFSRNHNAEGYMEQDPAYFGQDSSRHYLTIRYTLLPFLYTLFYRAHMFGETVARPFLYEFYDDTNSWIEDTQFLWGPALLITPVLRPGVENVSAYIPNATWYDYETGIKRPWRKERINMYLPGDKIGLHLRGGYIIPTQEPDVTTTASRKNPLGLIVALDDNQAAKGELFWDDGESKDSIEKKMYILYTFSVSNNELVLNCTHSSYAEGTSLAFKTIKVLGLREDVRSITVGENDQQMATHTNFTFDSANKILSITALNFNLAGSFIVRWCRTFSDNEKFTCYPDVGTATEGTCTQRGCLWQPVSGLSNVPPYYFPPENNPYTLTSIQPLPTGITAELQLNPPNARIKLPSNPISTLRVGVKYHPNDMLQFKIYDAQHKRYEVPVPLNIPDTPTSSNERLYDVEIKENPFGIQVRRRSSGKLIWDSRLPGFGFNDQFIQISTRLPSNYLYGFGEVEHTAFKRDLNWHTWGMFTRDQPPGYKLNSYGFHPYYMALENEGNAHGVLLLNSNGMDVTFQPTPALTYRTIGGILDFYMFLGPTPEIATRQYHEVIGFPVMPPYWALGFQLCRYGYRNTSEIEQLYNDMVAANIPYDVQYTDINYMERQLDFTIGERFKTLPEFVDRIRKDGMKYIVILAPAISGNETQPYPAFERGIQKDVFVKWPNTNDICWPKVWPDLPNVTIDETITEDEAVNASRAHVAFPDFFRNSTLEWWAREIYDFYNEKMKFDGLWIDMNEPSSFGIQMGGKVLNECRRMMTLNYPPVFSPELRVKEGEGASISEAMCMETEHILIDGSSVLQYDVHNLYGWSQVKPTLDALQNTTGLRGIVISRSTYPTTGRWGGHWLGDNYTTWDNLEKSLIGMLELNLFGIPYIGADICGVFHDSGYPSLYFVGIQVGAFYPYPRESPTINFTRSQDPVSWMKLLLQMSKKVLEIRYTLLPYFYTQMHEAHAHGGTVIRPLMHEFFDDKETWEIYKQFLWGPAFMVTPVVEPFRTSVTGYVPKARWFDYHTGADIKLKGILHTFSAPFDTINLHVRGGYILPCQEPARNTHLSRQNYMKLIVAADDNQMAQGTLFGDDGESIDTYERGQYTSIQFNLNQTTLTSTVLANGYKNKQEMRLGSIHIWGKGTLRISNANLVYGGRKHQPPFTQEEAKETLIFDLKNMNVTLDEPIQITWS

For `Cc1cc(-c2ncccn2)ccc1NCCCCCCN1C[C@H](O)[C@@H](O)[C@H](O)[C@H]1CO` [Compound 1233, (2R,3R,4R,5S)-2-(hydroxymethyl)-1-(6-{[2-methyl-4-(pyrimidin-2-yl)phenyl]amino}hexyl)piperidine-3,4,5-triol], which IC50 [1] is on record?
The IC50 was 0.023 µM.

What about the IC50 [2] of the same molecule?
The IC50 was 1.03 µM.

And the IC50 [3]?
The IC50 was 1.31 µM.

What about the IC50 [4] of the same molecule?
The IC50 was 0.13 µM.

Which IC50 [1] does the source give for `[N-]=[N+]=Nc1ccc(NCCc2ccccc2CCN2C[C@H](O)[C@@H](O)[C@H](O)[C@H]2CO)c([N+](=O)[O-])c1` [Compound 1249] here?
Its IC50 is 0.162 µM.

And the IC50 [2]?
The IC50 was 1.92 µM.

And the IC50 [3]?
The IC50 was 0.32 µM.

And the IC50 [4]?
The IC50 was 1.87 µM.

What does the source list for `NS(=O)(=O)c1cc(-c2ncccn2)ccc1NCCCCCCN1C[C@H](O)[C@@H](O)[C@H](O)[C@H]1CO` [Compound 1265, 5-(pyrimidin-2-yl)-2-({6-[(2R,3R,4R,5S)-3,4,5-trihydroxy-2-(hydroxymethyl)piperidin-1-yl]hexyl}amino)benzene-1-sulfonamide]?
IC50 [1]: 0.012 µM; IC50 [2]: 0.035 µM; IC50 [3]: 5.08 µM; IC50 [4]: 0.098 µM

With `OC[C@@H]1[C@@H](O)[C@H](O)[C@@H](O)CN1CCCCCCNc1ccc(-c2ncccn2)cc1C(F)(F)F` [Compound 1258, (2R,3R,4R,5S)-2-(hydroxymethyl)-1-(6-{[4-(pyrimidin-2-yl)-2-(trifluoromethyl)phenyl]amino}hexyl)piperidine-3,4,5-triol] as the molecule, how does the IC50 [1] read?
Its IC50 is 0.031 µM.

And the IC50 [2]?
The IC50 was 0.032 µM.

And the IC50 [3]?
The IC50 was 1.35 µM.

What about the IC50 [4] of the same molecule?
The IC50 was 0.108 µM.

Which results are given for `Nc1ccc(NCCn2cc(CCN3C[C@H](O)[C@@H](O)[C@H](O)[C@H]3CO)nn2)c([N+](=O)[O-])c1Cl` [Compound 1253, (2R,3R,4R,5S)-1-[2-(1-{2-[(4-amino-3-chloro-2-nitrophenyl)amino]ethyl}-1H-1,2,3-triazol-4-yl)ethyl]-2-(hydroxymethyl)piperidine-3,4,5-triol]?
IC50 [1]: 0.225 µM; IC50 [2]: 0.664 µM; IC50 [3]: > 100 µM; IC50 [4]: 3.44 µM

How did the IC50 [1] turn out when `CN(C)Cc1ccc(NCCCCCCN2C[C@H](O)[C@@H](O)[C@H](O)[C@H]2CO)c(C(=O)O)c1` [Compound 1245, 5-[(dimethylamino)methyl]-2-({6-[(2R,3R,4R,5S)-3,4,5-trihydroxy-2-(hydroxymethyl)piperidin-1-yl]hexyl}amino)benzoic acid] was run?
The IC50 was 0.051 µM.

And the IC50 [2]?
Its IC50 is 0.392 µM.

What about the IC50 [3] of the same molecule?
The IC50 was 56 µM.

And the IC50 [4]?
Its IC50 is 0.12 µM.

What does the source list for `OC[C@@H]1[C@@H](O)[C@H](O)[C@@H](O)CN1Cc1cccc(CNc2ccc(Br)cc2)c1` [Compound 1027, (2R,3R,4R,5S)-1-[(3-{[(4-bromophenyl)amino]methyl}phenyl)methyl]-2-(hydroxymethyl)piperidine-3,4,5-triol]?
IC50 [1]: 23.6 µM; IC50 [2]: 2.83 µM; IC50 [3]: 75.7 µM; IC50 [4]: 0.023 µM

What does the source list for `COc1cc(NCCCCCCN2C[C@H](O)[C@@H](O)[C@H](O)[C@H]2CO)cc(-c2ncc[nH]2)c1` [Compound 1219, (2R,3R,4R,5S)-2-(hydroxymethyl)-1-(6-{[3-(1H-imidazol-2-yl)-5-methoxyphenyl]amino}hexyl)piperidine-3,4,5-triol]?
IC50 [1]: 0.018 µM; IC50 [2]: 0.089 µM; IC50 [3]: 8.67 µM; IC50 [4]: 0.064 µM

How did the IC50 [1] turn out when `COc1ccc(CCCCCCCN2C[C@H](O)[C@@H](O)[C@H](O)[C@H]2CO)cc1` [Compound 1309, (2R,3R,4R,5S)-2-(hydroxymethyl)-1-[7-(4-methoxyphenyl)heptyl]piperidine-3,4,5-triol] was run?
Its IC50 is 0.037 µM.

What about the IC50 [2] of the same molecule?
The IC50 was 0.263 µM.

What about the IC50 [3] of the same molecule?
Its IC50 is 2.34 µM.

And the IC50 [4]?
Its IC50 is 0.155 µM.

What does the source list for `Cc1nc(=O)c2cc(-c3ncccn3)ccc2n1CCCCCCN1C[C@H](O)[C@@H](O)[C@H](O)[C@H]1CO` [Compound 1246, 2-methyl-6-(pyrimidin-2-yl)-1-{6-[(2R,3R,4R,5S)-3,4,5-trihydroxy-2-(hydroxymethyl)piperidin-1-yl]hexyl}-1,4-dihydroquinazolin-4-one]?
IC50 [1]: 0.004 µM; IC50 [2]: 0.046 µM; IC50 [3]: 21.6 µM; IC50 [4]: > 100 µM

Which IC50 [1] does the source give for `CN(C)Cc1ccc(NCCCCCCN2C[C@H](O)[C@@H](O)[C@H](O)[C@H]2CO)c(F)c1` [Compound 1236, (2R,3R,4R,5S)-1-[6-({4-[(dimethylamino)methyl]-2-fluorophenyl}amino)hexyl]-2-(hydroxymethyl)piperidine-3,4,5-triol] here?
Its IC50 is 0.039 µM.

And the IC50 [2]?
The IC50 was 0.556 µM.

And the IC50 [3]?
The IC50 was 4.63 µM.

And the IC50 [4]?
Its IC50 is 0.254 µM.

With `N#Cc1cc(NCc2cccc(CN3C[C@H](O)[C@@H](O)[C@H](O)[C@H]3CO)c2)cc(N2CCOCC2)c1` [Compound 1042, 3-(morpholin-4-yl)-5-{[(3-{[(2R,3R,4R,5S)-3,4,5-trihydroxy-2-(hydroxymethyl)piperidin-1-yl]methyl}phenyl)methyl]amino}benzonitrile] as the molecule, how does the IC50 [1] read?
Its IC50 is 8.68 µM.

And the IC50 [2]?
Its IC50 is 1.83 µM.

And the IC50 [3]?
Its IC50 is over 100 µM.

And the IC50 [4]?
Its IC50 is 0.163 µM.

How did the IC50 [1] turn out when `COc1cc(NCCCCCCN2C[C@H](O)[C@@H](O)[C@H](O)[C@H]2CO)cc(-c2ncccn2)c1` [Compound 1217, (2R,3R,4R,5S)-2-(hydroxymethyl)-1-(6-{[3-methoxy-5-(pyrimidin-2-yl)phenyl]amino}hexyl)piperidine-3,4,5-triol] was run?
Its IC50 is 0.011 µM.

What about the IC50 [2] of the same molecule?
Its IC50 is 0.01 µM.

And the IC50 [3]?
Its IC50 is 0.981 µM.

And the IC50 [4]?
Its IC50 is 0.225 µM.

What does the source list for `OC[C@@H]1[C@@H](O)[C@H](O)[C@@H](O)CN1CCCCCCNc1ccc(-c2ncccn2)cc1F` [Compound 1229, (2R,3R,4R,5S)-1-(6-{[2-fluoro-4-(pyrimidin-2-yl)phenyl]amino}hexyl)-2-(hydroxymethyl)piperidine-3,4,5-triol]?
IC50 [1]: 0.037 µM; IC50 [2]: 0.081 µM; IC50 [3]: 0.959 µM; IC50 [4]: 0.07 µM

Which results are given for `Cc1cc(NCc2ccc(CN3C[C@H](O)[C@@H](O)[C@H](O)[C@H]3CO)cc2)cc(-n2nccn2)c1` [Compound 1316, (2R,3R,4R,5S)-2-(hydroxymethyl)-1-{[4-({[3-methyl-5-(2H-1,2,3-triazol-2-yl)phenyl]amino}methyl)phenyl]methyl}piperidine-3,4,5-triol]?
IC50 [1]: 0.194 µM; IC50 [2]: 0.094 µM; IC50 [3]: > 100 µM; IC50 [4]: 0.014 µM

Which results are given for `[N-]=[N+]=Nc1ccc(NCCNC(=O)NCCN2C[C@H](O)[C@@H](O)[C@H](O)[C@H]2CO)c([N+](=O)[O-])c1` [Compound 1276, 1-{2-[(4-azido-2-nitrophenyl)amino]ethyl}-3-{2-[(2R,3R,4R,5S)-3,4,5-trihydroxy-2-(hydroxymethyl)piperidin-1-yl]ethyl}urea]?
IC50 [1]: 0.039 µM; IC50 [2]: 0.253 µM; IC50 [3]: 0.062 µM; IC50 [4]: 0.316 µM

For `Cc1cc(NCc2cccc(CN3C[C@H](O)[C@@H](O)[C@H](O)[C@H]3CO)c2)cc(-c2cccnn2)c1` [Compound 1034, (2R,3R,4R,5S)-2-(hydroxymethyl)-1-{[3-({[3-methyl-5-(pyridazin-3-yl)phenyl]amino}methyl)phenyl]methyl}piperidine-3,4,5-triol], which IC50 [1] is on record?
Its IC50 is 10 µM.

And the IC50 [2]?
Its IC50 is 2.71 µM.

What about the IC50 [3] of the same molecule?
Its IC50 is 91.9 µM.

What about the IC50 [4] of the same molecule?
Its IC50 is 0.057 µM.

`COCCc1ccc(CCCN2C[C@H](O)[C@@H](O)[C@H](O)[C@H]2CO)cc1` [Compound 1308, (2R,3R,4R,5S)-2-(hydroxymethyl)-1-{3-[4-(2-methoxyethyl)phenyl]propyl}piperidine-3,4,5-triol] was tested. Which IC50 [1] did it give?
The IC50 was 0.125 µM.

What about the IC50 [2] of the same molecule?
Its IC50 is 1.68 µM.

And the IC50 [3]?
The IC50 was 50.9 µM.

What about the IC50 [4] of the same molecule?
The IC50 was 0.331 µM.

`COc1ccc(CCCCCN2C[C@H](O)[C@@H](O)[C@H](O)[C@H]2CO)cc1` [Compound 1310, (2R,3R,4R,5S)-2-(hydroxymethyl)-1-[5-(4-methoxyphenyl)pentyl]piperidine-3,4,5-triol] was tested. Which IC50 [1] did it give?
The IC50 was 0.078 µM.

And the IC50 [2]?
Its IC50 is 1.19 µM.

And the IC50 [3]?
The IC50 was 16.9 µM.

What about the IC50 [4] of the same molecule?
Its IC50 is 0.371 µM.

With `N#CCc1ccc(NCCCCCCN2C[C@H](O)[C@@H](O)[C@H](O)[C@H]2CO)c([N+](=O)[O-])c1` [Compound 1299, 2-[3-nitro-4-({6-[(2R,3R,4R,5S)-3,4,5-trihydroxy-2-(hydroxymethyl)piperidin-1-yl]hexyl}amino)phenyl]acetonitrile] as the molecule, how does the IC50 [1] read?
The IC50 was 0.017 µM.

What about the IC50 [2] of the same molecule?
The IC50 was 0.032 µM.

And the IC50 [3]?
Its IC50 is 3.39 µM.

And the IC50 [4]?
Its IC50 is 0.037 µM.

For `N#Cc1ccc(F)cc1NCCCCCCN1C[C@H](O)[C@@H](O)[C@H](O)[C@H]1CO` [Compound 1251, 4-fluoro-2-({6-[(2R,3R,4R,5S)-3,4,5-trihydroxy-2-(hydroxymethyl)piperidin-1-yl]hexyl}amino)benzonitrile], which IC50 [1] is on record?
The IC50 was 0.012 µM.

And the IC50 [2]?
Its IC50 is 0.041 µM.

And the IC50 [3]?
Its IC50 is 1.41 µM.

What about the IC50 [4] of the same molecule?
The IC50 was 0.038 µM.
